According to patent US20230142274A1 (SIMCERE PHARMACEUTICAL CO., LTD., priority 2020, published 2023):
Read-outs that look alike come from different tables or passages of the source.

Tests used:
[1] = system: Daudi cells; assay: Inhibition of human Daudi lymphoma cell proliferation (Cell-Titer Glo); format: cell-based; settings: 3 days incubation, read-out: Anti-Proliferative Activity Against Daudi cells IC50
Method in brief: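 Daudi cells in RPMI 1640 with 10% FBS were seeded and grown 24 h, then exposed for 3 days (37 °C, 5% CO2) to 10-point 3-fold serial dilutions at 0.25% final DMSO. Viability was read by CellTiter-Glo ATP luminescence, and IC50 was fitted from % inhibition against top/bottom controls.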

[2] = system: WI-38 cells; assay: Inhibition of human WI-38 embryonic lung cell proliferation (Cell-Titer Glo); format: cell-based; settings: 3 days incubation, read-out: Anti-Proliferative Activity Against WI-38 cells IC50
Protocol: Introduction of the experimental principle: After the RAD51 inhibitor to be tested was co-incubated with human embryonic lung cells for a period of time, the influence of the test compound on cell proliferation was measured by a method for counting cell proliferation based on the quantitative measurement of intracellular ATP content.
Materials and Cells: WI-38 cells were purchased from ATCC; fetal bovine serum, 1640 medium and penicillin-streptomycin were purchased from Gibco Inc. (U.S.), 96-well plates were purchased from Corning Inc. (U.S.), and Cell-Titer Glo reagent was purchased from Promega Corporation (U.S.).
Cell culture: WI-38 cells were cultured in an EMEM culture medium containing 10% fetal bovine serum and 1% penicillin-streptomycin at 37° C. in an atmosphere containing 5% CO2. Cells in logarithmic growth phase could be used for experiments.
Assay of cell proliferation and viability: Cell-Titer Glo reagent was used to measure the inhibitory activities of the compounds on the proliferation of WI-38 cell strain. The concentration of cells was adjusted, and the cells were seeded in a 96-well plate and cultured at 37° C. in an atmosphere containing 5% CO2 for 24 hours. The powder of the compound was dissolved in 100% DMSO to form a 10 mM solution. 10 μl of the solution of the compound was aspirated and transferred into a 96-well compound plate containing 20 μl of DMSO solution in each well for 3-fold dilution and was then formulated to 10 serial dilutions. Thereafter, 2 μl of the solution of the compound was aspirated from the corresponding well and added correspondingly into a 96-well intermediate compound dilution plate containing 78 μl of complete culture medium in each well. The resultant was mixed well, and the plate was centrifuged at 1000 rpm for 1 minute. Finally, 10 μl of the solution of the compound was aspirated from the corresponding well of the 96-well intermediate compound dilution plate, and transferred into the corresponding well of the cell culture plate containing 90 μl of complete culture medium. The final concentration of DMSO was 0.25%. After the addition of the compound, the cells were continued to be incubated for 3 days at 37° C. in an atmosphere containing 5% CO2. Cell-Titer Glo reagent was added to measure cell viability.
% Compound inhibition was calculated and IC50 of the compound was fitted;
% Compound inhibition=1−100%×(Signal−Bottom)/(Top−Bottom)

Structure (SMILES)	IC50 ([1]; Homo sapiens, 72 h) [nM]	IC50 ([2]; Homo sapiens, 72 h) [nM]	IC50 [1] [nM]	IC50 [2] [nM]
CC(C)OC(=O)Nc1ccc(-c2nnc([C@H]3CC[C@H](NC(=O)OC(C)C)CC3)s2)c(S(=O)(=O)NC(C)(C)C)c1 [Example 5, isopropyl trans-N-[3-(tert-butylsulfamoyl)-4-[5-[4-(isopropoxycarbonylamino)cyclohexyl]-1,3,4-thiadiazol-2-yl]phenyl]carbamate]	1160	> 25000	–	–
CC(C)OC(=O)Nc1ccc(-c2cnc(C34CC(NC(=O)OC(C)C)(C3)C4)s2)c(S(=O)(=O)NC(C)(C)C)c1 [Example 7, isopropyl (3-(5-(4-(isopropoxycarbonyl)amino-2-(N-(tert-butyl)sulfamoyl)phenyl)thiazol-2-yl)bicyclo[1.1.1]pent-1-yl)carbamate]	2590	> 25000	–	–
CC(C)OC(=O)Nc1ccc(-c2cnc(N3CC4C(C3)C4NC(=O)OC(C)C)s2)c(S(=O)(=O)NC(C)(C)C)c1 (stereo not drawn) [Example 9, isopropyl endo-N-[3-(tert-butylsulfamoyl)-4-[2-[6-(isopropoxycarbonylamino)-3-azabicyclo[3.1.0]hex-3-yl]thiazol-5-yl]phenyl]carbamate]	–	–	2060	> 25000
CC(C)OC(=O)N[C@H]1CC[C@H](c2ncc(-c3ccc(NC(=O)N4CCc5ccccc5C4)cc3S(=O)(=O)NC(C)(C)C)s2)CC1 [Example 12, isopropyl trans-N-[4-[5-[2-(tert-butylsulfamoyl)-4-(3,4-dihydro-1H-isoquinoline-2-carbonylamino)phenyl]thiazol-2-yl]cyclohexyl]carbamate]	20	> 25000	–	–
CC(C)OC(=O)NC1CCC(c2ncc(-c3ccc(NC(=O)C4Cc5ccccc5CN4)cc3S(=O)(=O)NC(C)(C)C)s2)CC1 (stereo not drawn) [Example 13, isopropyl trans-N-[4-[5-[2-(tert-butylsulfamoyl)-4-(1,2,3,4-tetrahydroisoquinoline-3-carbonylamino)phenyl]thiazol-2-yl]cyclohexyl]carbamate]	410	> 25000	–	–
CC(C)OC(=O)NC1CCC(c2ncc(-c3ccc(N/C(=N/C#N)NCc4ccccc4)cc3S(=O)(=O)NC(C)(C)C)s2)CC1 (stereo not drawn) [Example 14, isopropyl trans-N-[4-[5-[4-[[(E)-N-benzyl-N′-cyanocarbamoylamino]amino]-2-(tert-butylsulfamoyl)phenyl]thiazol-2-yl]cyclohexyl]carbamate]	450	> 25000	–	–
CC(C)OC(=O)N[C@H]1CC[C@H](c2ncc(-c3ccc(NC(=O)COc4ccccc4)cc3S(=O)(=O)NC(C)(C)C)s2)CC1 [Example 15, isopropyl trans-N-[4-[5-[2-(tert-butylsulfamoyl)-4-[(2-phenoxyacetyl)amino]phenyl]thiazol-2-yl]cyclohexyl]carbamate]	280	> 25000	–	–
CC(C)OC(=O)N[C@H]1CC[C@H](c2ncc(-c3ccc(NC(=O)OCC4CC4)cc3S(=O)(=O)NC(C)(C)C)s2)CC1 [Example 16, isopropyl trans-N-[4-[5-[2-(tert-butylsulfamoyl)-4-(cyclopropylmethoxycarbonylamino)phenyl]thiazol-2-yl]cyclohexyl]carbamate]	490	> 25000	–	–
CC(C)OC(=O)N[C@H]1CC[C@H](c2ncc(-c3ccc(NC(=O)NC4(c5ccccc5)CC4)cc3S(=O)(=O)NC(C)(C)C)s2)CC1 [Example 17, isopropyl trans-N-[4-[5-[2-(tert-butylsulfamoyl)-4-[(1-phenylcyclopropyl)carbamoylamino]phenyl]thiazol-2-yl]cyclohexyl]carbamate]	110	> 25000	–	–
CC(C)OC(=O)N[C@H]1CC[C@H](c2ncc(-c3ccc(NC(=O)C4CC4c4ccccc4)cc3S(=O)(=O)NC(C)(C)C)s2)CC1 (stereo partly drawn) [Example 18, isopropyl trans-N-[4-[5-[2-(tert-butylsulfamoyl)-4-[(2-phenylcyclopropanecarbonyl)amino]phenyl]thiazol-2-yl]cyclohexyl]carbamate]	90	> 25000	–	–
